17 molecules from patent US20220288069A1, “INHIBITORS OF TYROSINE KINASE” (BridGene Biosciences, Inc., priority 2019, published 2022) can be followed below.

In test [1] the test system is THP−1. Briefly: Cell viability assay (CellTiter-Glo), THP-1. The test is classed as cell-based. Particulars: THP-1 cells, 72 hr; for GI50: Homo sapiens. The method, then:
(§1) Cell viability assay was performed based on the following brief procedures. Cells were plated at the density of 5K/well with volume of […] in 96-well white plate and clear bottom plates. 20 μL of veh. or compound was added at proper concentration to the well. The final volume is 200 μL, with final conc. of DMSO32 0.1%, 11 points, triplicates. The cells were then treated at 37° C. in the TC incubator for 72 hr. Equal volume (200 μL) of CellTiter-Glo reagent (Promega) was added to the well and protect from light at room temperature for 15 min. The chemiluminicent was measured with EnSight (Perkin Elmer). GraphPad Prism non-linear regression, Log[inhibitor] response with four parameters were used to calculate GI50.
Background: Cellular ATP, detected with luciferase, serves as a proxy for viable cell number.

The test system of test [2] is Kasumi−1. In words: Cell viability assay (CellTiter-Glo), Kasumi-1. Format: cell-based. As to conditions: Homo sapiens, Kasumi-1 cells, 72 hr. The method, then:
as §1

In test [3] the target is T1, FLT3 (Homo sapiens, UniProt P36888).
T1 construct: purchased ThermoFisher PV3182
T1 sequence (P36888 27-993): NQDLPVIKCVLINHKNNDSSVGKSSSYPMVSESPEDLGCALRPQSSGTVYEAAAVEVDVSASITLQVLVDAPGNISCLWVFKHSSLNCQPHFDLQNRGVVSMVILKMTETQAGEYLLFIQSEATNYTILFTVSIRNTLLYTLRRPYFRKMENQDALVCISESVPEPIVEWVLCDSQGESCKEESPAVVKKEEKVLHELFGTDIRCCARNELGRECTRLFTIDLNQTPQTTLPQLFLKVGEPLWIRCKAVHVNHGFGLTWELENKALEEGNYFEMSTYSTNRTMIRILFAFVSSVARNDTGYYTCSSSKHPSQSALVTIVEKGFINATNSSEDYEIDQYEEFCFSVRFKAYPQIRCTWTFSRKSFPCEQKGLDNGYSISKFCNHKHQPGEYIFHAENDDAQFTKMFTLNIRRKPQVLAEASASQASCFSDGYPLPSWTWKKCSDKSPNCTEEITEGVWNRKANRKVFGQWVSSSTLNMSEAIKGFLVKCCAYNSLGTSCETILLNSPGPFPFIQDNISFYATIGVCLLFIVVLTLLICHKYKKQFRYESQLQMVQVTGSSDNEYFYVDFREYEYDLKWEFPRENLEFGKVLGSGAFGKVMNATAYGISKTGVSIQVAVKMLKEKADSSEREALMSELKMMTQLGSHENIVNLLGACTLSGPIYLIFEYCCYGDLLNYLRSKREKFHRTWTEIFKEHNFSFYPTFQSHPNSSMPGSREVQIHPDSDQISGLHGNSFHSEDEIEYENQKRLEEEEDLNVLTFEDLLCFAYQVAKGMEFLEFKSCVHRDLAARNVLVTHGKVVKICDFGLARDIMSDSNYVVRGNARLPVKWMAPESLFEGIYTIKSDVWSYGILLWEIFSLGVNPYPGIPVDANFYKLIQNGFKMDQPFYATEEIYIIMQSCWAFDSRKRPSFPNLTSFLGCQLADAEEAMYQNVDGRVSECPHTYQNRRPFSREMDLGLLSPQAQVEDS
Briefly: Caliper mobility shift kinase inhibition assay, FLT3. Format: biochemical. As to conditions: recombinant kinase; enzyme 0.1 nM, ATP 95 μM, incubation 3 hr. The method, then: Compounds' inhibition of recombinant kinases (FGR, FLT3, FMS, KIT, or RON) was measured using Caliper mobility shift assay, which is based on the difference in capillary electrophoresis mobility of a fluorescent-tagged peptide as a result of a phosphorylation by the kinase under study. Reactions were started by the addition of various concentrations of a compound (originally in DMSO solution) to a kinase solution in assay buffer followed by addition of a mixture of ATP and a fluorescent-tagged peptide substrate in assay buffer. Concentrations of the enzyme, ATP and the peptide were pre-optimized so that 15% substrate conversion to ensure initial velocity measurements. After incubation for 3 hours at room temperature, the kinase reaction was quenched by the addition of a concentrated EDTA solution before analysis on a LabChip EZ Reader II to yield percentage inhibition by comparing to the DMSO control.
Table 2 below summarizes the assay conditions for the characterization of the kinase inhibition properties of the disclosed compounds.

In test [4] the test system is MV4−11. In words: Cell viability assay (CellTiter-Glo), MV4-11. The test is classed as cell-based. Particulars: Homo sapiens, MV4-11 cells, 72 hr. The method, then: as §1

Structures are written as SMILES. A value given as a limit tells only on which side of the number the result lay.

Broadly, the GI50 is the concentration giving 50% growth inhibition. Lower therefore signals more potent growth inhibition. As usually defined, the IC50 is the concentration that gives 50% inhibition. As for `Cc1cc(Nc2cc(NCCNC(=O)[C@@H]3COCCN3C(=O)/C=C/CN(C)C)nc(Nc3ccc(CC#N)cc3)n2)n[nH]1` [Compound 2], the concentration for 50% growth inhibition (GI50) in test [1] was at least 1000 nM; in test [2] it was 100 to 1000 nM; in test [4], 10 to 100 nM. Moreover, the IC50 in test [3] was under 10 nM.

With `C=CC(=O)N(C)[C@@H](C)C(=O)NCCNc1cc(Nc2ncc(C3CCC3)s2)nc(CC)n1` [Compound 6, (2S)—N-[2-[[6-[(5-cyclobutylthiazol-2-yl)amino]-2-ethyl-pyrimidin-4-yl]amino]ethyl]-2-[methyl(prop-2-enoyl)amino]propanamide], the concentration for 50% growth inhibition (GI50) in test [1] was 10 to 100 nM; in test [2], under 10 nM; in test [4] it was under 10 nM. For the same molecule, the half-inhibitory concentration (IC50) in test [3] was under 10 nM.

With `C=CC(=O)N(C)[C@@H](C)C(=O)NCCOc1cc(Nc2ncc(C3CCC3)s2)nc(CC)n1` [Compound 7, (2S)—N-[2-[6-[(5-cyclobutylthiazol-2-yl)amino]-2-ethyl-pyrimidin-4-yl]oxyethyl]-2-[methyl(prop-2-enoyl)amino]propanamide], the 50% growth inhibitory concentration (GI50) was 100 to 1000 nM in test [1], under 10 nM in test [2] and under 10 nM in test [4]. In addition, in test [3], the IC50 is under 10 nM.

Take `C=CC(=O)N1CCOC[C@H]1C(=O)NCCOc1cc(Nc2ncc(-c3ccccc3)s2)nc(C)n1` [Compound 14, (3S)—N-[2-[2-methyl-6-[(5-phenylthiazol-2-yl)amino]pyrimidin-4-yl]oxyethyl]-4-prop-2-enoyl-morpholine-3-carboxamide]: the half-inhibitory concentration (IC50) in test [3] was under 10 nM.

As to `C=CC(=O)N1CCN(C)C[C@H]1C(=O)NCCOc1cc(Nc2ncc(-c3ccccc3)s2)nc(C)n1` [Compound 15, (2S)-4-methyl-N-[2-[2-methyl-6-[(5-phenylthiazol-2-yl)amino]pyrimidin-4-yl]oxyethyl]-1-prop-2-enoyl-piperazine-2-carboxamide], the IC50 in test [3] was under 10 nM.

For the molecule `C/C=C/C(=O)N(C)[C@@H](C)C(=O)NCCOc1cc(Nc2ncc(-c3ccccc3)s2)nc(C)n1` [Compound 16, N-methyl-N-[(1S)-1-methyl-2-[2-[2-methyl-6-[(5-phenylthiazol-2-yl)amino]pyrimidin-4-yl]oxyethylamino]-2-oxoethyl]but-2-enamide], the IC50 in test [3] is 10 to 100 nM.

With `C=CC(=O)N(C)[C@@H](C)C(=O)NCCN(C)c1cc(Nc2ncc(-c3ccncc3)s2)nc(C)n1` [Compound 19, (2S)—N-[2-[methyl-[2-methyl-6-[[5-(4-pyridyl)thiazol-2-yl]amino]pyrimidin-4-yl]amino]ethyl]-2-[methyl(prop-2-enoyl)amino]propanamide], the IC50 in test [3] is under 10 nM.

With `C=CC(=O)N(C)[C@@H](C)C(=O)N[C@H]1CCN(c2cc(Nc3ncc(-c4ccncc4)s3)nc(C)n2)C1` [Compound 20, (2S)-2-[methyl(prop-2-enoyl)amino]-N-[(3S)-1-[2-methyl-6-[[5-(4-pyridyl)thiazol-2-yl]amino]pyrimidin-4-yl]pyrrolidin-3-yl]propanamide], in test [3], the half-inhibitory concentration (IC50) is under 10 nM.

For the molecule `C=CC(=O)N1CCC[C@H]1C(=O)N[C@H]1CCN(c2cc(Nc3ncc(-c4ccncc4)s3)nc(C)n2)C1` [Compound 21, (2S)—N-[(3S)-1-[2-methyl-6-[[5-(4-pyridyl)thiazol-2-yl]amino]pyrimidin-4-yl]pyrrolidin-3-yl]-1-prop-2-enoyl-pyrrolidine-2-carboxamide], in test [3], the IC50 is under 10 nM.

With `C=CC(=O)N1CCC[C@H]1C(=O)NCCNc1cc(Nc2ncc(-c3ccncc3)s2)nc(C)n1` [Compound 22, (2S)—N-[2-[[2-methyl-6-[[5-(4-pyridyl)thiazol-2-yl]amino]pyrimidin-4-yl]amino]ethyl]-1-prop-2-enoyl-pyrrolidine-2-carboxamide], the half-maximal inhibitory concentration (IC50) in test [3] was under 10 nM.

In the case of `C=CC(=O)N(C)[C@@H](C)C(=O)NCCNC(=O)c1c[nH]c(/C=C2\C(=O)Nc3ccc(F)cc32)c1C` [Compound 23, 5-[(5-fluoro-2-oxo-indolin-3-ylidene)methyl]-4-methyl-N-[2-[[(2S)-2-[methyl(prop-2-enoyl)amino]propanoyl]amino]ethyl]-1H-pyrrole-3-carboxamide], the values for the concentration for 50% growth inhibition (GI50) in test [1] and in test [4] were at least 1000 nM and under 10 nM, respectively. Moreover, in test [3], the IC50 is under 10 nM.

As for `CCC(=O)N(C)[C@@H](C)C(=O)NCCNC(=O)c1c[nH]c(/C=C2\C(=O)Nc3ccc(F)cc32)c1C` [Compound 24, 5-[(5-fluoro-2-oxo-indolin-3-ylidene)methyl]-4-methyl-N-[2-[[(2S)-2-[methyl(propanoyl)amino]propanoyl]amino]ethyl]-1H-pyrrole-3-carboxamide], the “THP−1 GI50” value in test [1] is on record as “=”. Also, in test [3], the IC50 was in the range of 10 to 100 nM. In test [4], this molecule showed a GI50 of 10 to 100 nM.

For `CC#CC(=O)N(C)[C@@H](C)C(=O)NCCNC(=O)c1c[nH]c(/C=C2\C(=O)Nc3ccc(F)cc32)c1C` [Compound 25, N-[2-[[(2S)-2-[but-2-ynoyl(methyl)amino]propanoyl]amino]ethyl]-5-[(5-fluoro-2-oxo-indolin-3-ylidene)methyl]-4-methyl-1H-pyrrole-3-carboxamide], the GI50 was at least 1000 nM in test [1] and under 10 nM in test [4]. Besides, in test [3], the IC50 was under 10 nM.

Consider `C=CC(=O)N(C)[C@@H](C)C(=O)NC[C@H]1CCc2c([nH]c(/C=C3\C(=O)Nc4ccc(F)cc43)c2C)C1` [Compound 27, (2S)—N-[[(6S)-2-[(5-fluoro-2-oxo-indolin-3-ylidene)methyl]-3-methyl-4,5,6,7-tetrahydro-1H-indol-6-yl]methyl]-2-[methyl(prop-2-enoyl)amino]propanamide], for which the GI50 was at least 1000 nM in test [1] and under 10 nM in test [4]. The IC50 in test [3] was under 10 nM.

In the case of `C=CC(=O)N(C)[C@@H](C)C(=O)NC[C@@H]1CCc2c([nH]c(/C=C3\C(=O)Nc4ccc(F)cc43)c2C)C1` [Compound 28, (2S)—N-[[(6R)-2-[(5-fluoro-2-oxo-indolin-3-ylidene)methyl]-3-methyl-4,5,6,7-tetrahydro-1H-indol-6-yl]methyl]-2-[methyl(prop-2-enoyl)amino]propanamide], the GI50 in test [1] was at least 1000 nM; in test [4] it was under 10 nM. Besides, the concentration for half-maximal inhibition (IC50) in test [3] was under 10 nM.

As for `Cc1c(/C=C2\C(=O)Nc3ccc(F)cc32)[nH]c2c1CC[C@H](CNC(=O)[C@H](C)N(C)C(=O)/C=C/CN(C)C)C2` [Compound 29, (E)-4-(dimethylamino)-N-[(1S)-2-[[(6S)-2-[(Z)-(5-fluoro-2-oxo-indolin-3-ylidene)methyl]-3-methyl-4,5,6,7-tetrahydro-1H-indol-6-yl]methylamino]-1-methyl-2-oxo-ethyl]-N-methyl-but-2-enamide], the GI50 was at least 1000 nM in test [1] and under 10 nM in test [4]. Moreover, in test [3], the IC50 was under 10 nM.

Turning to `Cc1c(/C=C2\C(=O)Nc3ccc(F)cc32)[nH]c2c1CC[C@@H](CNC(=O)[C@H](C)N(C)C(=O)/C=C/CN(C)C)C2` [Compound 30, (E)-4-(dimethylamino)-N-[(1S)-2-[[(6R)-2-[(Z)-(5-fluoro-2-oxo-indolin-3-ylidene)methyl]-3-methyl-4,5,6,7-tetrahydro-1H-indol-6-yl]methylamino]-1-methyl-2-oxo-ethyl]-N-methyl-but-2-enamide], the results for the GI50 in test [1] and in test [4] were at least 1000 nM and under 10 nM, respectively. Besides, the IC50 in test [3] is under 10 nM.
